Reference: patent US20230250066A1, “HERBICIDAL CINNOLINE DERIVATIVES” (SYNGENTA CROP PROTECTION AG, priority 2020, published 2023)

What was measured:
Type in all cases: in vivo
[1] = tested on: Amaranthus retoflexus (AMARE); experiment: Pre-emergence herbicidal test; settings: 1000 g/ha, evaluated after 13 days
Setaria faberi (SETFA) [2] = experiment: Pre-emergence herbicidal test; settings: 1000 g/ha, evaluated after 13 days
[3] = tested on: Echinochloa crus-galli (ECHCG); experiment: Pre-emergence herbicidal test; settings: 1000 g/ha, evaluated after 13 days
[4] = tested on: Ipomoea hederacea (IPOHE); experiment: Pre-emergence herbicidal test; settings: 1000 g/ha, evaluated after 13 days
[5] = tested on: Abutilon theophrasti (ABUTH); experiment: Pre-emergence herbicidal test; settings: 1000 g/ha, evaluated after 13 days
Zea mays (ZEAMX) [6] = experiment: Pre-emergence herbicidal test; settings: 1000 g/ha, evaluated after 13 days
[7] = tested on: Abutilon theophrasti (ABUTH); experiment: Post-emergence herbicidal test; settings: 1000 g/ha unless otherwise stated, evaluated after 13 days
In short: (§1)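 Spray-applied at 1000 g/ha unless stated, in the glasshouse. Damage rated 13 days later on a 0–5 scale.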

[8] = tested on: Amaranthus retoflexus (AMARE); experiment: Post-emergence herbicidal test; settings: 1000 g/ha unless otherwise stated, evaluated after 13 days
In short: as §1

[9] = tested on: Echinochloa crus-galli (ECHCG); experiment: Post-emergence herbicidal test; settings: 1000 g/ha unless otherwise stated, evaluated after 13 days
In short: as §1

[10] = tested on: Ipomoea hederacea (IPOHE); experiment: Post-emergence herbicidal test; settings: 1000 g/ha unless otherwise stated, evaluated after 13 days
In short: as §1

Setaria faberi (SETFA) [11] = experiment: Post-emergence herbicidal test; settings: 1000 g/ha unless otherwise stated, evaluated after 13 days
In short: as §1

Zea mays (ZEAMX) [12] = experiment: Post-emergence herbicidal test; settings: 1000 g/ha unless otherwise stated, evaluated after 13 days
In short: as §1

CCOC(=O)c1nn(-c2ccc(OC(F)(F)F)cc2)c2cc(OC)cc(SC)c2c1=O [Compound P57, ethyl 7-methoxy-5-methylsulfanyl-4-oxo-1-[4-(trifluoromethoxy)phenyl]cinnoline-3-carboxylate]
percentage damage caused to the plant, five-point scale, AMARE [1]: 0 (0=0%)
percentage damage caused to the plant, five-point scale, SETFA (Setaria faberi (SETFA) [2]): 0 (0=0%)
percentage damage caused to the plant, five-point scale, ECHCG [3]: 0 (0=0%)
percentage damage caused to the plant, five-point scale, IPOHE [4]: 0 (0=0%)
percentage damage caused to the plant, five-point scale, ABUTH [5]: 0 (0=0%)
percentage damage caused to the plant, five-point scale, ZEAMX (Zea mays (ZEAMX) [6]): 0 (0=0%)
percentage damage caused to the plant, ABUTH (five-point scale) [7]: 0 (0=0%)
percentage damage caused to the plant, AMARE (five-point scale) [8]: 0 (0=0%)
percentage damage caused to the plant, ECHCG (five-point scale) [9]: 1 (1=10-20%)
percentage damage caused to the plant, IPOHE (five-point scale) [10]: 0 (0=0%)
percentage damage caused to the plant, SETFA (five-point scale) (Setaria faberi (SETFA) [11]): 1 (1=10-20%)
percentage damage caused to the plant, ZEAMX (five-point scale) (Zea mays (ZEAMX) [12]): 0 (0=0%)

CCCCCCOC(=O)c1nn(-c2ccc(OC(F)(F)F)cc2)c2cccc(S(C)(=O)=O)c2c1=O [Compound P59, hexyl 5-methylsulfonyl-4-oxo-1-[4-(trifluoromethoxy)phenyl]cinoline-3-carboxylate]
percentage damage caused to the plant, five-point scale, AMARE [1]: 2 (2=21-40%)
percentage damage caused to the plant, five-point scale, SETFA (Setaria faberi (SETFA) [2]): 4 (4=61-80%)
percentage damage caused to the plant, five-point scale, ECHCG [3]: 3 (3=41-60%)
percentage damage caused to the plant, five-point scale, IPOHE [4]: 2 (2=21-40%)
percentage damage caused to the plant, five-point scale, ABUTH [5]: 3 (3=41-60%)
percentage damage caused to the plant, five-point scale, ZEAMX (Zea mays (ZEAMX) [6]): 3 (3=41-60%)
percentage damage caused to the plant, ABUTH (five-point scale) [7]: 1 (1=10-20%)
percentage damage caused to the plant, AMARE (five-point scale) [8]: 1 (1=10-20%)
percentage damage caused to the plant, ECHCG (five-point scale) [9]: 4 (4=61-80%)
percentage damage caused to the plant, IPOHE (five-point scale) [10]: 3 (3=41-60%)
percentage damage caused to the plant, SETFA (five-point scale) (Setaria faberi (SETFA) [11]): 4 (4=61-80%)
percentage damage caused to the plant, ZEAMX (five-point scale) (Zea mays (ZEAMX) [12]): 2 (2=21-40%)

CCCCCCCCCCCOC(=O)c1nn(-c2ccc(OC(F)(F)F)cc2)c2cccc(S(C)(=O)=O)c2c1=O [Compound P60, undecyl 5-methylsulfonyl-4-oxo-1-[4-(trifluoromethoxy)phenyl]cinnoline-3-carboxylate]
percentage damage caused to the plant, five-point scale, AMARE [1]: 1 (1=10-20%)
percentage damage caused to the plant, five-point scale, SETFA (Setaria faberi (SETFA) [2]): 4 (4=61-80%)
percentage damage caused to the plant, five-point scale, ECHCG [3]: 1 (1=10-20%)
percentage damage caused to the plant, five-point scale, IPOHE [4]: 0 (0=0%)
percentage damage caused to the plant, five-point scale, ABUTH [5]: 1 (1=10-20%)
percentage damage caused to the plant, five-point scale, ZEAMX (Zea mays (ZEAMX) [6]): 1 (1=10-20%)
percentage damage caused to the plant, ABUTH (five-point scale) [7]: 1 (1=10-20%)
percentage damage caused to the plant, AMARE (five-point scale) [8]: 1 (1=10-20%)
percentage damage caused to the plant, ECHCG (five-point scale) [9]: 1 (1=10-20%)
percentage damage caused to the plant, IPOHE (five-point scale) [10]: 1 (1=10-20%)
percentage damage caused to the plant, SETFA (five-point scale) (Setaria faberi (SETFA) [11]): 1 (1=10-20%)
percentage damage caused to the plant, ZEAMX (five-point scale) (Zea mays (ZEAMX) [12]): 1 (1=10-20%)

CS(=O)(=O)c1cccc2c1c(=O)c(C(=O)OCCCl)nn2-c1ccc(OC(F)(F)F)cc1 [Compound P61, 2-chloroethyl 5-methylsulfonyl-4-oxo-1-[4-(trifluoromethoxy)phenyl]cinnoline-3-carboxylate]
percentage damage caused to the plant, five-point scale, AMARE [1]: 0 (0=0%)
percentage damage caused to the plant, five-point scale, SETFA (Setaria faberi (SETFA) [2]): 5 (5=81-100%)
percentage damage caused to the plant, five-point scale, ECHCG [3]: 4 (4=61-80%)
percentage damage caused to the plant, five-point scale, IPOHE [4]: 0 (0=0%)
percentage damage caused to the plant, five-point scale, ABUTH [5]: 0 (0=0%)
percentage damage caused to the plant, five-point scale, ZEAMX (Zea mays (ZEAMX) [6]): 1 (1=10-20%)
percentage damage caused to the plant, ABUTH (five-point scale) [7]: 2 (2=21-40%)
percentage damage caused to the plant, AMARE (five-point scale) [8]: 0 (0=0%)
percentage damage caused to the plant, ECHCG (five-point scale) [9]: 3 (3=41-60%)
percentage damage caused to the plant, IPOHE (five-point scale) [10]: 0 (0=0%)
percentage damage caused to the plant, SETFA (five-point scale) (Setaria faberi (SETFA) [11]): 4 (4=61-80%)
percentage damage caused to the plant, ZEAMX (five-point scale) (Zea mays (ZEAMX) [12]): 0 (0=0%)

C#CCCCOC(=O)c1nn(-c2ccc(OC(F)(F)F)cc2)c2cccc(S(C)(=O)=O)c2c1=O [Compound P62, pent-4-ynyl 5-methylsulfonyl-4-oxo-1-[4-(trifluoromethoxy)phenyl]cinnoline-3-carboxylate]
percentage damage caused to the plant, five-point scale, AMARE [1]: 0 (0=0%)
percentage damage caused to the plant, five-point scale, SETFA (Setaria faberi (SETFA) [2]): 5 (5=81-100%)
percentage damage caused to the plant, five-point scale, ECHCG [3]: 4 (4=61-80%)
percentage damage caused to the plant, five-point scale, IPOHE [4]: 0 (0=0%)
percentage damage caused to the plant, five-point scale, ABUTH [5]: 0 (0=0%)
percentage damage caused to the plant, five-point scale, ZEAMX (Zea mays (ZEAMX) [6]): 0 (0=0%)
percentage damage caused to the plant, ABUTH (five-point scale) [7]: 0 (0=0%)
percentage damage caused to the plant, AMARE (five-point scale) [8]: 0 (0=0%)
percentage damage caused to the plant, ECHCG (five-point scale) [9]: 3 (3=41-60%)
percentage damage caused to the plant, IPOHE (five-point scale) [10]: 0 (0=0%)
percentage damage caused to the plant, SETFA (five-point scale) (Setaria faberi (SETFA) [11]): 4 (4=61-80%)
percentage damage caused to the plant, ZEAMX (five-point scale) (Zea mays (ZEAMX) [12]): 1 (1=10-20%)

CS(=O)(=O)c1cccc2c1c(=O)c(C(=O)OCC1CC1)nn2-c1ccc(OC(F)(F)F)cc1 [Compound P63, cyclopropylmethyl 5-methylsulfonyl-4-oxo-1-[4-(trifluoromethoxy)phenyl]cinnoline-3-carboxylate]
percentage damage caused to the plant, five-point scale, AMARE [1]: 0 (0=0%)
percentage damage caused to the plant, five-point scale, SETFA (Setaria faberi (SETFA) [2]): 5 (5=81-100%)
percentage damage caused to the plant, five-point scale, ECHCG [3]: 3 (3=41-60%)
percentage damage caused to the plant, five-point scale, IPOHE [4]: 0 (0=0%)
percentage damage caused to the plant, five-point scale, ABUTH [5]: 0 (0=0%)
percentage damage caused to the plant, five-point scale, ZEAMX (Zea mays (ZEAMX) [6]): 0 (0=0%)
percentage damage caused to the plant, ABUTH (five-point scale) [7]: 0 (0=0%)
percentage damage caused to the plant, AMARE (five-point scale) [8]: 0 (0=0%)
percentage damage caused to the plant, ECHCG (five-point scale) [9]: 3 (3=41-60%)
percentage damage caused to the plant, IPOHE (five-point scale) [10]: 0 (0=0%)
percentage damage caused to the plant, SETFA (five-point scale) (Setaria faberi (SETFA) [11]): 4 (4=61-80%)
percentage damage caused to the plant, ZEAMX (five-point scale) (Zea mays (ZEAMX) [12]): 0 (0=0%)

C=CC(C)OC(=O)c1nn(-c2ccc(OC(F)(F)F)cc2)c2cccc(S(C)(=O)=O)c2c1=O (stereo not drawn) [Compound P64, 1-methylallyl 5-methylsulfonyl-4-oxo-1-[4-(trifluoromethoxy)phenyl]cinnoline-3-carboxylate]
percentage damage caused to the plant, five-point scale, AMARE [1]: 0 (0=0%)
percentage damage caused to the plant, five-point scale, SETFA (Setaria faberi (SETFA) [2]): 5 (5=81-100%)
percentage damage caused to the plant, five-point scale, ECHCG [3]: 4 (4=61-80%)
percentage damage caused to the plant, five-point scale, IPOHE [4]: 0 (0=0%)
percentage damage caused to the plant, five-point scale, ABUTH [5]: 0 (0=0%)
percentage damage caused to the plant, five-point scale, ZEAMX (Zea mays (ZEAMX) [6]): 0 (0=0%)
percentage damage caused to the plant, ABUTH (five-point scale) [7]: 1 (1=10-20%)
percentage damage caused to the plant, AMARE (five-point scale) [8]: 0 (0=0%)
percentage damage caused to the plant, ECHCG (five-point scale) [9]: 3 (3=41-60%)
percentage damage caused to the plant, IPOHE (five-point scale) [10]: 0 (0=0%)
percentage damage caused to the plant, SETFA (five-point scale) (Setaria faberi (SETFA) [11]): 4 (4=61-80%)
percentage damage caused to the plant, ZEAMX (five-point scale) (Zea mays (ZEAMX) [12]): 1 (1=10-20%)
